Source: ChEMBL document CHEMBL4825766, “Structure Activity Relationships for a Series of Eticlopride-Based Dopamine D2/D3 Receptor Bitopic Ligands” (J Med Chem, 2021)

Experiments:
[1] = biological target: D(2) dopamine receptor (Homo sapiens, UniProt P14416)
[2] = biological target: D(3) dopamine receptor (Homo sapiens, UniProt P35462)
Chain of D(3) dopamine receptor (P35462 whole entry): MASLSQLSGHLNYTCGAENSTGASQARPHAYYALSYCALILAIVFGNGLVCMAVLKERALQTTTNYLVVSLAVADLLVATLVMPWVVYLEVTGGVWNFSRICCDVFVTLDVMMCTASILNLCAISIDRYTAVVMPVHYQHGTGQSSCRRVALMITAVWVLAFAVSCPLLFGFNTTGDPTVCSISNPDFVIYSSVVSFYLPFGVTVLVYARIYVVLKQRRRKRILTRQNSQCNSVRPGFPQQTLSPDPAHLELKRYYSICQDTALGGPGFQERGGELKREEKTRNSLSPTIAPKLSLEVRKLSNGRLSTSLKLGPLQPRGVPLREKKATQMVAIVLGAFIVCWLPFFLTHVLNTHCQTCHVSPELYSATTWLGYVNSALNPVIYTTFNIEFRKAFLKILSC

Chain of D(2) dopamine receptor (P14416 whole entry): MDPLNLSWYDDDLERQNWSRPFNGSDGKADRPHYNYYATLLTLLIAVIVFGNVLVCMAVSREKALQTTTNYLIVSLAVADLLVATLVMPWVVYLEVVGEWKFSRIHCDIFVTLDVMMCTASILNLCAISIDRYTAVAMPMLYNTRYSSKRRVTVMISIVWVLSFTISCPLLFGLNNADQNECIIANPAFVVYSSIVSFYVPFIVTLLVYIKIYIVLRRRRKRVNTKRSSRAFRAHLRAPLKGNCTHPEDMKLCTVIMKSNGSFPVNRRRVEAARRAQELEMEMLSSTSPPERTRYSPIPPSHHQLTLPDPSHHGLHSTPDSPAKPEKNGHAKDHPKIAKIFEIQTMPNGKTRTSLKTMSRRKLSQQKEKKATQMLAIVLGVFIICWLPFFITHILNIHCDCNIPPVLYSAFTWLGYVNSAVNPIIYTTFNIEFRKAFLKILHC

With `CCc1cc(Cl)c(OC)c(C(=O)NC[C@@H]2CCCN2CC)c1O` [ETICLOPRIDE] the Ki [1] was 0.117 nM.
Molecule `CCc1cc(Cl)c(OC)c(C(=O)NC[C@@H]2CCCN2Cc2ccccc2)c1O` has a Ki [1] of 205 nM and a Ki [2] of 28.7 nM.
With `CCc1cc(Cl)c(OC)c(C(=O)NC[C@@H]2C[C@@H](OCCCCNC(=O)c3cc4ccccc4o3)CN2)c1O` the Ki [1] was 2.29 nM and the Ki [2] was 0.493 nM.
For `CCc1cc(Cl)c(OC)c(C(=O)NC[C@@H]2C[C@@H](OCCCCOc3ccc4c(c3)NC(=O)CC4)CN2)c1O`, the Ki [1] was 1.77 nM and the Ki [2] was 0.436 nM.
In the case of `CCc1cc(Cl)c(OC)c(C(=O)NC[C@@H]2CCCN2CCCCNC(=O)c2cc3ccccc3[nH]2)c1O`, the Ki [1] is reported as 173 nM and the Ki [2] is reported as 61.1 nM.
`CCCN1CCC[C@H]1CNC(=O)c1c(O)c(CC)cc(Cl)c1OC` was tested, and the Ki [1] was 0.688 nM and the Ki [2] was 0.281 nM.
For `CCc1cc(Cl)c(OC)c(C(=O)NC[C@@H]2CCCN2CCCc2ccccc2)c1O`, the Ki [1] was 162 nM and the Ki [2] was 20.4 nM.
With `CCc1cc(Cl)c(OC)c(C(=O)NC[C@@H]2C[C@@H](OCCCc3ccccc3)CN2)c1O` the Ki [1] was 7.42 nM and the Ki [2] was 2.63 nM.
Molecule `CCc1cc(Cl)c(OC)c(C(=O)NCC2CCN(C)C2)c1O` (centres undefined) has a Ki [1] of 217 nM and a Ki [2] of 100 nM.
`CCCN1C[C@H](OCCCCOc2ccc3c(c2)NC(=O)CC3)C[C@H]1CNC(=O)c1c(O)c(CC)cc(Cl)c1OC` showed a Ki [1] of 2.57 nM and a Ki [2] of 0.444 nM.
Molecule `CCc1cc(Cl)c(OC)c(C(=O)NC[C@@H]2C[C@@H](OCCCCO)CN2)c1O` has a Ki [1] of 1.9 nM and a Ki [2] of 0.815 nM.
`CCc1cc(Cl)c(OC)c(C(=O)NC[C@@H]2CCCN2CCCCOc2ccc3c(c2)NC(=O)CC3)c1O` was tested, and the Ki [1] was 25.3 nM and the Ki [2] was 6.97 nM.
Molecule `CCc1cc(Cl)c(OC)c(C(=O)NC[C@@H]2CCCN2CCc2c(C)nc3n(c2=O)CCCC3)c1O` has a Ki [1] of 74.4 nM and a Ki [2] of 50.3 nM.
With `CCc1cc(Cl)c(OC)c(C(=O)NC[C@@H]2CCCN2)c1O` the Ki [1] was 2.26 nM and the Ki [2] was 0.431 nM.
`CCc1cc(Cl)c(OC)c(C(=O)NCC2CCN(CC)C2)c1O` (centres undefined) was tested, and the Ki [1] was 38.2 nM and the Ki [2] was 19.2 nM.
For `CCCN1CCC(CNC(=O)c2c(O)c(CC)cc(Cl)c2OC)C1` (centres undefined), the Ki [1] was 66.4 nM and the Ki [2] was 14.3 nM.
In the case of `CCc1cc(Cl)c(OC)c(C(=O)NC[C@@H]2C[C@@H](OCCCCNC(=O)c3cc4ccccc4[nH]3)CN2)c1O`, the Ki [1] is reported as 2.54 nM and the Ki [2] is reported as 0.797 nM.
For `CCc1cc(Cl)c(OC)c(C(=O)NC[C@@H]2C[C@@H](OCCCCOCc3ccccc3)CN2)c1O`, the Ki [1] was 7.24 nM and the Ki [2] was 1.01 nM.
Molecule `CCc1cc(Cl)c(OC)c(C(=O)NC[C@@H]2CCCN2CCCCNC(=O)c2cc3ccccc3o2)c1O` has a Ki [1] of 27.6 nM and a Ki [2] of 15.4 nM.
Molecule `CCc1cc(Cl)c(OC)c(C(=O)NC[C@@H]2CCCN2Cc2ccccc2)c1OCc1ccccc1` has a Ki [1] of 2590 nM and a Ki [2] of 426 nM.
